The assay concerns scalp of a human subject (hairline recession, hair loss and thinning). Kind of assay: Topical administration to the scalp of a human subject with hairline recession, hair loss and thinning. As to conditions: 2% miconazole nitrate formulation, twice per day, observed after 3 months, one human subject, FIG. 2 vs FIG. 1.

Excerpt: Hairline recession, hair thinning, and hair loss were observed prior to administration.

Turning to `Clc1ccc(COC(Cn2ccnc2)c2ccc(Cl)cc2Cl)c(Cl)c1` (centres unmarked) [miconazole], the “hair growth on the scalp” value is “promotion of hair growth elsewhere on the scalp”. Also, the hairline recession result (topical on scalp) was “reversal of hairline recession”.
